# From ChEMBL document CHEMBL5442379, “ASAP - SARS-CoV-2 nsp3 macrodomain single point” (2024)
# Target: Replicase polyprotein 1ab (Severe acute respiratory syndrome coronavirus 2) (UniProt P0DTD1)
# Description: Functional biochemical assay to identify treatments for viral infectious disease that targets SARS-COV-2 nsp3 macrodomain, whereby the mechanism of action displaces an ADP-Ribose modified peptide from the binding site. Utilizing a time-resolved fluorescence method to measure binding by reading the emitted fluorescence intensity in two wavelengths.
structure (smiles),measurement,setting,value
O=C(NCC1(O)CCOCC1)c1cnn2ccc(C3CCN(C(=O)c4ccccc4)CC3)cc12,inhibition,"Concentration 49.75 uM, Number of replicates 2.0, Standard deviation 3.347 %",-3.96%
same,inhibition,"Concentration 99.5 uM, Number of replicates 2.0, Standard deviation 3.334 %",-1.1%
O=C(Cc1ccns1)Nc1ncnc2[nH]cnc12,inhibition,"Concentration 49.75 uM, Number of replicates 2.0, Standard deviation 7.374 %",-9.5%
same,inhibition,"Concentration 99.5 uM, Number of replicates 2.0, Standard deviation 4.303 %",-3.24%
CC1(C)CN(C(=O)c2ccc(NC(=O)Nc3ccccc3)cc2)C[C@@]1(F)C(=O)O,inhibition,"Concentration 49.75 uM, Number of replicates 2.0, Standard deviation 0.273 %",-2.57%
same,inhibition,"Concentration 99.5 uM, Number of replicates 2.0, Standard deviation 1.041 %",-5.19%
Cc1cc(NCc2ncccc2O)ncn1,inhibition,"Concentration 50.0 uM, Number of replicates 2.0, Standard deviation 4.706 %",-3.33%
CSc1ccccc1NC(=O)c1ncnc2[nH]ccc12,inhibition,"Concentration 50.0 uM, Number of replicates 2.0, Standard deviation 3.62 %",-5.8%
CCn1cc(CNC(=O)c2ccc(NC(=O)Nc3ccccc3)cc2)cn1,inhibition,"Concentration 49.75 uM, Number of replicates 2.0, Standard deviation 1.767 %",-1.76%
same,inhibition,"Concentration 99.5 uM, Number of replicates 2.0, Standard deviation 3.239 %",3.8%
C[C@@]1(C(N)=O)CCCN1C(=O)c1cnn2ccc(C3CCN(C(=O)c4ccccc4)CC3)cc12,inhibition,"Concentration 49.75 uM, Number of replicates 2.0, Standard deviation 3.259 %",-8.04%
same,inhibition,"Concentration 99.5 uM, Number of replicates 2.0, Standard deviation 21.157 %",10.4%
O=C(NCc1nc(-c2ccco2)n[nH]1)c1cc(=O)n2ncnc2[nH]1,inhibition,"Concentration 50.0 uM, Number of replicates 2.0, Standard deviation 1.646 %",-2.6%
O[C@@]1(C(F)(F)F)CCCN(c2ncnc3n[nH]cc23)CC1,inhibition,"Concentration 50.0 uM, Number of replicates 2.0, Standard deviation 1.087 %",-4.14%
NC(=O)c1ccccc1NC(=O)c1ncnc2[nH]ccc12,inhibition,"Concentration 50.0 uM, Number of replicates 2.0, Standard deviation 0.083 %",-2.59%
Fc1ccc(OC(F)F)c(CNc2cnc3[nH]ncc3c2)c1,inhibition,"Concentration 50.0 uM, Number of replicates 2.0, Standard deviation 3.077 %",-6.67%
c1nc(N2CCC[C@@H](c3nc4c(s3)CCC4)C2)c2c[nH]nc2n1,inhibition,"Concentration 50.0 uM, Number of replicates 2.0, Standard deviation 1.131 %",3.83%
CN1CCO[C@H](CNC(=O)c2ccc(NC(=O)Nc3ccccc3)cc2)C1,inhibition,"Concentration 49.75 uM, Number of replicates 2.0, Standard deviation 5.309 %",-0.616%
same,inhibition,"Concentration 99.5 uM, Number of replicates 2.0, Standard deviation 6.496 %",3.27%
O[C@H]1C[C@](CNc2ncnc3[nH]ccc23)(c2ccccc2)C1,inhibition,"Concentration 50.0 uM, Number of replicates 2.0, Standard deviation 6.633 %",11.4%
C[C@]1(C(=O)N(CCC(=O)N2CCNCC2)Cc2cccc(Cl)c2)CCCN1,inhibition,"Concentration 49.75 uM, Number of replicates 2.0, Standard deviation 5.247 %",1.4%
same,inhibition,"Concentration 99.5 uM, Number of replicates 2.0, Standard deviation 0.402 %",2.13%
CN(Cc1nccn1Cc1ccccc1)c1ncnc2[nH]ccc12,inhibition,"Concentration 50.0 uM, Number of replicates 2.0, Standard deviation 2.394 %",-7.22%
same,inhibition,"Concentration 100.0 uM, Number of replicates 2.0, Standard deviation 1.584 %",-8.82%
Cn1ncc2ncnc(NCc3ncccc3O)c21,inhibition,"Concentration 50.0 uM, Number of replicates 2.0, Standard deviation 1.081 %",-2.55%
CC(C)(c1noc(-c2ncnc3[nH]ccc23)n1)S(C)(=O)=O,inhibition,"Concentration 50.0 uM, Number of replicates 2.0, Standard deviation 1.059 %",-0.756%
Cc1ccc(C(=O)N2CCC(c3ccn4ncc(C(=O)N5CCCCC5)c4c3)CC2)c(=O)[nH]1,inhibition,"Concentration 49.75 uM, Number of replicates 2.0, Standard deviation 1.294 %",3.31%
same,inhibition,"Concentration 99.5 uM, Number of replicates 2.0, Standard deviation 2.376 %",3.66%
CCn1cc(CNc2cc3c(O)ncnc3cn2)nn1,inhibition,"Concentration 50.0 uM, Number of replicates 2.0, Standard deviation 1.563 %",1.67%
Cc1nc(Nc2cnn(CCO)c2)c2cc[nH]c2n1,inhibition,"Concentration 50.0 uM, Number of replicates 2.0, Standard deviation 4.582 %",-6.15%
c1nc(-c2nc(-c3cc(C4CC4)[nH]n3)no2)c2cc[nH]c2n1,inhibition,"Concentration 50.0 uM, Number of replicates 2.0, Standard deviation 1.585 %",-4.8%
same,inhibition,"Concentration 50.0 uM, Number of replicates 2.0, Standard deviation 2.643 %",-2.81%
same,inhibition,"Concentration 100.0 uM, Number of replicates 2.0, Standard deviation […]",-2.45%
Cc1cocc1C(=O)N(CCC(=O)N1CCNCC1)Cc1cccc(Cl)c1,inhibition,"Concentration 49.75 uM, Number of replicates 2.0, Standard deviation 0.438 %",1.4%
same,inhibition,"Concentration 99.5 uM, Number of replicates 2.0, Standard deviation 0.13 %",0.51%
Cc1cccc2oc(CCNc3ncnc4[nH]ccc34)nc12,inhibition,"Concentration 50.0 uM, Number of replicates 2.0, Standard deviation 6.123 %",-3.26%
O=C(c1ccccc1)N1CCC(c2ccn3ncc(C(=O)N4CCc5cccnc54)c3c2)CC1,inhibition,"Concentration 49.75 uM, Number of replicates 2.0, Standard deviation 3.564 %",-4.67%
same,inhibition,"Concentration 99.5 uM, Number of replicates 2.0, Standard deviation 0.208 %",-8.02%
CCC(CC)(C(=O)Nc1nc(C)nc2[nH]ccc12)C(=O)OC(C)(C)C,inhibition,"Concentration 50.0 uM, Number of replicates 2.0, Standard deviation 5.081 %",-9.46%
same,inhibition,"Concentration 100.0 uM, Number of replicates 2.0, Standard deviation 0.41 %",-4.71%
